Test [1] deals with tissue factor mRNA in LPS-stimulated mouse peritoneal macrophages. The test is described as follows: Assay of mouse peritoneal macrophage tissue factor mRNA. The format is cell-based. The conditions noted are these: 18 h, then LPS 100 ng/ml for 6 h, relative to cyclophilin mRNA, DMSO treatment = 100, read-out: Expressed Amount of Tissue Factor mRNA; for mrna remaining at 1 µM: test compound 1 μM. Here is the method:
3 ml of thioglycolate (Sigma Chemical) were administered into the abdominal cavity of male C57BL/6J mice (Charles River) followed 4 days later by intraperitoneal administration of 10 ml of phosphate-buffered saline (hereinafter PBS) containing heparin (Hishiyama Pharmaceutical) at a concentration of 5 U/ml and recovery of intraperitoneal macrophages using a syringe. After centrifuging the recovered macrophages at 1000 rpm and 4° C. for 5 minutes, the supernatant was discarded followed by suspending in RPMI 1640 medium (Gibco Laboratories) containing normal fetal bovine serum (hereinafter FBS) at a concentration of 10%. The macrophages were adjusted to a concentration of 4×10^6 cells/ml, disseminated in 1 ml aliquots in a 12-well plate, and cultured for 3 hours at 37° C. using a CO2 incubator. Subsequently, the cells were washed with PBS, and the medium was replaced with RPMI medium containing lipoprotein-deficient serum (hereinafter LPDS) (Sigma Chemical) at a concentration of 5%. Test compounds dissolved in dimethylsulfoxide (DMSO) at a concentration of 1 μM were added to make a final DMSO concentration of 0.1%, and after warming for 18 hours at 37° C., lipopolysaccharide (hereinafter LPS) (Sigma Chemical) was added to make a concentration of 100 ng/ml. The cells were recovered 6 hours later, RNA was extracted using the Rneasy Mini Kit (Qiagen), and after carrying out a reverse transcription reaction using the First-Strand cDNA Synthesis Kit (Amersham Biosciences), the expressed amounts of tissue factor mRNA and cyclophylin mRNA were measured by quantitative RT-PCR (TaqMan, Applied Biosystems 7700 Sequence Detector).
Quantitative RT-PCR for tissue factor was carried out using the aforementioned TF-1 and TF-2 as primers and TF-P as probes, while quantitative PCR for cyclophilin was carried out using the aforementioned Cyl-1 and Cyl-2 as primers and Cyl-P as probes. Both were carried out by warming for 2 minutes at 50° C. and then for 10 minutes at 95° C., followed by 40 warming cycles consisting of warming for 15 seconds at 95° C. and then for 1 minute at 60° C. The expressed amount of tissue factor mRNA was calculated as a relative value of the expressed amount of cyclophilin mRNA. The expressed amounts of tissue factor mRNA resulting from the test compounds at a concentration of 1 μM or 10 μM based on a value of 100 for the expressed amount of tissue factor mRNA in a case of treatment with DMSO at a concentration of […] are shown in Table 7.

Test [2] has as its system tissue factor mRNA in kidneys of LPS-dosed mice. The test is described as follows: Assay of tissue factor mRNA using LPS-dosed mouse (kidney). The format is in vivo. Particulars: male C57BL/6J mice, 10 mg/kg oral once a day for 7 days; LPS 4 mg/kg i.p., kidneys 6 hours later; PG/Tween only = 100. Here is the method:
Test compounds were dissolved in a solution comprising a 4:1 mixture of propylene glycol (Wako Pure Chemical Industries) and Tween 80 (Kao) (hereinafter PG/Tween) followed by oral administration by gavage for 7 days at 10 mg/kg once a day in the evening to male C57BL/6J mice (Charles River). LPS was administered intraperitoneally at 4 mg/kg at 9:00 AM on the day following the 7th day of administration of PG/Tween, after which the animals were laparotomized under ether anesthesia 6 hours later to excise the kidneys. RNA was extracted from the kidneys using Trizol reagent (Invitrogen). After carrying out a reverse transcription reaction on the resulting RNA using the First-Strand cDNA Synthesis Kit, the expressed amounts of tissue factor mRNA and cyclophilin mRNA were measured in the same manner as the aforementioned Test Example 1. The expressed amounts of tissue factor mRNA for the test compounds when administered at a concentration of 10 mg/kg based on a value of 100 for the expressed amount of tissue factor mRNA in a case of administration of PG/Tween only are shown in Table 8.

The structures appear in SMILES notation.

As for `O=C(O)Cc1cccc(OCCCN(Cc2cccc(C(F)(F)F)c2Cl)CC(c2ccccc2)c2ccccc2)c1` [Compound C, 2-(3-{3-[[2-Chloro-3-(trifluoromethyl)benzyl](2,2-diphenylethyl)amino]propoxy}-phenyl)acetic acid, reference compound], in test [1], the mrna remaining at 1 µM is 68.8%. Besides, in test [2], the “Expressed Amount of Tissue Factor mRNA” value amounted to 54.1.
Taken in the same sequence, the figures for `COc1cc2nc(Cc3ccccc3)n(-c3ccc(C(O)(C(F)(F)F)C(F)(F)F)cc3)c(=O)c2cc1OC` [Compound D, 2-Benzyl-6,7-dimethoxy-3-[4-[2,2,2-trifluoro-1-hydroxy-1-(trifluoromethyl)ethyl]phenyl]-4(3H)-quinazolinone] were 39% and 63.5.
Take `CC(C)(C)OC(=O)c1c(COc2ccc(-c3ccc(CC(=O)O)cc3)cc2)ccc(F)c1O` [Reference Example 19, (4′-{[2-(tert-Butoxycarbonyl)-4-fluoro-3-hydroxybenzyl]oxy}-1,1′-biphenyl-4-yl)acetic acid]: the mrna remaining at 10 µM in test [1] (test compound 10 μM) stood at 51.6%.
Turning to `CN(C(=O)CC1CC1)c1ccc(OCc2ccc(C(F)(F)F)c(O)c2C(=O)OC(C)(C)C)cc1` [Reference Example 8, tert-Butyl 6-({4-[(cyclopropylacetyl) (methyl)amino]phenoxy}methyl)-2-hydroxy-3-(trifluoromethyl)benzoate], the mrna remaining at 1 µM in test [1] amounted to 51.8%.
On the same count and under the same terms, next, `O=c1c2cc(-c3ccccn3)ccc2nc(Cc2ccccc2)n1-c1ccc(C(O)(C(F)(F)F)C(F)(F)F)cc1` [Compound F, 2-Benzyl-6-(2-pyridyl)-3-[4-[2,2,2-trifluoro-1-hydroxy-1-(trifluoromethyl)ethyl]phenyl]-4(3H)-quinazolinone]: 76.9%.
The same measure, in the same setting: as for `CC(C)(C)OC(=O)n1c(COc2ccc(-c3ccc(CC(=O)O)c(Cl)c3)cc2)cc2ccc(F)cc21` [Reference Example 10, (4′-([1-(tert-Butoxycarbonyl)-6-fluoro-1H-indol-2-yl]methoxy)-3-chloro-1,1′-biphenyl-4-yl)acetic acid], the figure is 68.9%.

For the origin of these results see patent US20080255111A1, “Tissue Factor Production Inhibitor” (SANKYO COMPANY LIMITED, priority 2004, published 2008).
